According to PubChem BioAssay (NCI):
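96-well plates; 48 h exposure; 5 concentrations. Endpoints by linear interpolation between flanking doses. Not reached: highest tested concentration assigned. TGI is the concentration that stops growth completely.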

Tests used:
Test in all cases: growth of human tumour cells (NCI), 48 h
K-562 leukemia = test system: K-562 leukemia
SNB-19 CNS = test system: SNB-19 CNS
HS 578T breast = test system: HS 578T breast
HOP-62 NSCLC = test system: HOP-62 NSCLC
DU-145 prostate = test system: DU-145 prostate
SW-620 colon = test system: SW-620 colon
T-47D breast = test system: T-47D breast
HT29 colon = test system: HT29 colon
IGROV1 ovarian = test system: IGROV1 ovarian
UO-31 renal = test system: UO-31 renal
NCI-H460 lung = test system: NCI-H460 lung
NCI-H226 lung = test system: NCI-H226 lung
SF-539 CNS = test system: SF-539 CNS
SF-295 CNS = test system: SF-295 CNS
A498 renal = test system: A498 renal
UACC-257 melanoma = test system: UACC-257 melanoma
ACHN renal = test system: ACHN renal
A549 NSCLC = test system: A549 NSCLC
M14 melanoma = test system: M14 melanoma
OVCAR-5 ovarian = test system: OVCAR-5 ovarian
SNB-75 CNS = test system: SNB-75 CNS
MCF7 breast = test system: MCF7 breast
MDA-N = test system: MDA-N
CAKI-1 renal = test system: CAKI-1 renal
SK-MEL-2 melanoma = test system: SK-MEL-2 melanoma
PC-3 prostate = test system: PC-3 prostate
SK-MEL-28 melanoma = test system: SK-MEL-28 melanoma
SK-OV-3 ovarian = test system: SK-OV-3 ovarian
RPMI-8226 leukemia = test system: RPMI-8226 leukemia
MOLT-4 leukemia = test system: MOLT-4 leukemia
BT-549 breast = test system: BT-549 breast
OVCAR-8 ovarian = test system: OVCAR-8 ovarian
CCRF-CEM leukemia = test system: CCRF-CEM leukemia
HCT-15 colon = test system: HCT-15 colon
SR leukemia = test system: SR leukemia
KM12 colon = test system: KM12 colon
U251 CNS = test system: U251 CNS
OVCAR-3 ovarian = test system: OVCAR-3 ovarian
HOP-92 NSCLC = test system: HOP-92 NSCLC
EKVX NSCLC = test system: EKVX NSCLC
NCI-H23 lung = test system: NCI-H23 lung
SK-MEL-5 melanoma = test system: SK-MEL-5 melanoma
786-0 renal = test system: 786-0 renal
UACC-62 melanoma = test system: UACC-62 melanoma
COLO 205 colon = test system: COLO 205 colon
HL-60(TB) leukemia = test system: HL-60(TB) leukemia
RXF 393 renal = test system: RXF 393 renal
MDA-MB-435 = test system: MDA-MB-435
NCI/ADR-RES ovarian = test system: NCI/ADR-RES ovarian
SF-268 CNS = test system: SF-268 CNS
SN12C renal = test system: SN12C renal
MDA-MB-231 breast = test system: MDA-MB-231 breast
MALME-3M melanoma = test system: MALME-3M melanoma
HCT-116 colon = test system: HCT-116 colon
OVCAR-4 ovarian = test system: OVCAR-4 ovarian

Measured: TGI

C1=NCCNCCNCCN=Cc2ccc(cc2)OCc2cccc(n2)COc2ccc1cc2
> 100 µM: all assays above
